In one assay the target is T1, gastrin (CCK2) receptors (Rattus norvegicus, UniProt P30553).
T1 construct: The stomach was excised and flushed with ca. 1 ml of unbuffered physiological saline solution; from tissue; host or cells: isolated whole stomach of immature rats (33-50 g, ca. 21 days old)
T1 sequence (P30553 1-452): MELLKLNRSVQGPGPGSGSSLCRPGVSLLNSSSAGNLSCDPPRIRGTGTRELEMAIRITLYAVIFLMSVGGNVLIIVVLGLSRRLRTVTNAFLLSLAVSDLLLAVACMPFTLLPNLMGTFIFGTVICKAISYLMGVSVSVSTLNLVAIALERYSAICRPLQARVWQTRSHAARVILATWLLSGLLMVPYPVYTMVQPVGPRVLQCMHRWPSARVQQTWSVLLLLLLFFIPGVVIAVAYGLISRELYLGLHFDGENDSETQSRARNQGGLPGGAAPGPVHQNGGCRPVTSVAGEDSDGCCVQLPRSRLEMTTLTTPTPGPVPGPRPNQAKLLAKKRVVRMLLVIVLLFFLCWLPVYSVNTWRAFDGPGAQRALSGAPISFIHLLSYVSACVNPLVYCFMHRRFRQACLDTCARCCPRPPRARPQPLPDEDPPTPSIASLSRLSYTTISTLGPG
Description: immature rat stomach assay, gastrin (CCK2) antagonist activity. The note with it: isolated immature rat stomach, antagonism of pentagastrin-stimulated acid secretion, 60 min incubation; for Kb: read-out: Rat stomach pKB (converted). The protocol:
The compounds of the examples were tested for gastrin (CCK2) antagonist activity in an immature rat stomach assay. The procedure was as follows:
The oesophagus of immature rats (33-50 g, ca. 21 days old) was ligated at the level of the cardiac sphincter and the duodenal sphincter was cannulated. The stomach was excised and flushed with ca. 1 ml of unbuffered physiological saline solution. The fundus was punctured and cannulated. A further 4-5 ml of unbuffered solution was flushed through the stomach to ensure the preparation was not leaking. The stomach was lowered into a jacketed organ bath containing 40 ml of buffered solution containing 3×10^−8 M 5-methylfurmethide, maintained at 37° and gassed vigorously with 95% O2/5% CO2. The stomach was continuously perfused at a rate of 1 ml min^−1 with unbuffered solution gassed with 100% O2 with perfusate passing over an internally referenced pH-electrode fixed 12 cm above the stomach.
After 120 min of stabilisation the drugs were added directly to the serosal solution in the organ bath and after a further 60 min cumulative pentagastrin dose-response curves were started. Changes in acid secretion were monitored and the curves analysed according to Black et al., Br. J. Pharmacol., 1985, 86, 581.

Another assay deals with T2, CCK1 receptors (Cavia porcellus, UniProt Q63931).
T2 construct: The pancreatata were homogenised in 40 ml ice-cold HEPES buffer using a polytron; from tissue; host or cells: pancreas membranes of male Dunkin Hartley guinea-pigs
T2 sequence (Q63931 1-430): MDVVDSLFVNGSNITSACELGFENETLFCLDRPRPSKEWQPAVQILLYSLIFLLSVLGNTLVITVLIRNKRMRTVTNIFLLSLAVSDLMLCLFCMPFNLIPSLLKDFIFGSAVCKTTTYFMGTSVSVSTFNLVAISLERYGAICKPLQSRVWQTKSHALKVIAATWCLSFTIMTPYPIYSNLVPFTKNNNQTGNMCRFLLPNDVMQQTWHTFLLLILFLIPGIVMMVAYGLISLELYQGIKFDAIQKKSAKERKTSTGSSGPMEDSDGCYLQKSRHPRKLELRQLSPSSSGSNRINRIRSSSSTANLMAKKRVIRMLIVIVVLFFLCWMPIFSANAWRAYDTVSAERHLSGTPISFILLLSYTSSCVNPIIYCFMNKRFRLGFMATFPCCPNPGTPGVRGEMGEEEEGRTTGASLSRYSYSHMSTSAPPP
The assay can be described thus: CCK1 binding assay, guinea-pig pancreas membranes, [125I]-CCK8(S). The note with it: [125I]-CCK8(S) 200 pM, 150 minutes at 21±3° C; for Ki: read-out: Guinea-Pig Pancreas CCK1 pKi (converted). The protocol:
The compounds of certain examples were also tested in a CCK1 binding assay as follows:
The pancreatata were removed from male guinea-pigs (200-300 g; Dunkin Hartley) and placed in ice-cold HEPES buffer (pH 7.2@21±3° C.). The pancreatata were homogenised in 40 ml ice-cold HEPES buffer using a polytron (Brinkmann, PT10, setting 10) 4×1 second. The homogenate was centrifuged at 39,800 g for 15 min at 4° C. The supernatant was discarded and the pellet re-suspended using a Teflon-in-glass homogeniser in 20 volumes of fresh buffer and re-centrifuged as above. The final pellet was re-suspended using a Teflon-in-glass homogeniser to a tissue concentration of 1 mg.ml^−1 (original wet weight), and filtered through a 500 μm pore-size Nytex mesh.
The membranes (400 μl; containing 0.375 μM PD134,308) were incubated for 150 minutes at 21±3° C. in a final volume of 0.5 ml with HEPES buffer containing [^125I]-CCK8 (S) (50 μl; 200 pM) and competing compound. Total and non-specific binding of [^125I]-CCK8 (S) were defined using 50 μl of buffer and 50μ of 100 nM L-364,718 respectively. The assay was terminated by rapid filtration through pre-soaked Whatman GF/B filters using a Brandell Cell Harvetser. The filters were washed (3×3 ml) with ice-cold 50 mM Tris HCl (pH 7.4@4° C.) and bound radioactivity was determined by counting (1 min) in a gamma counter.

On to “2-{5-[5-(Adamantan-1-yloxymethyl)-2-cyclohexyl-1H-imidazol-2-yl]-[1,3,4]oxadiazol-2-yl}-isonicotinic acid [Example 14]”, for which, at gastrin (CCK2) receptors, the “Rat stomach pKB” value is given as 5.98. The “Guinea-Pig Pancreas CCK1 pKi” value on CCK1 receptors is 5.01. The matching figures for “3-{2-[5-(2-Adamantan-1-yl-ethyl)-2-o-tolyl-1H-imidazol-4-yl]-[1,2,4]oxadiazol-3-yl}-benzoic acid [Example 5]”: 5.76 and 6.40. The matching figures for “3-{2-[5-(Adamantan-1-yloxymethyl)-2-cyclohexyl-1H-imidazol-4-yl]-[1,2,4]oxadiazol-3-yl}-benzoic acid [Example 3]”: 8.66 and 6.37. The matching figures for “3-{5-[5-(Adamantan-1-yloxymethyl)-2-cyclohexyl-1H-imidazol-4-yl]-[1,3,4]triazol-3-yl}-benzoic acid [Example 10]”: 8.28 and 6.41. As to “3-{5-[5-(Adamantan-1-yloxymethyl)-2-cyclohexyl-3-hydroxy-1H-imidazol-4-yl]-[1,3,4]oxadiazol-2-yl}-benzoic acid [Example 17]”, the “Rat stomach pKB” value at gastrin (CCK2) receptors is on record as 6.90. The “Guinea-Pig Pancreas CCK1 pKi” value on CCK1 receptors is reported as 5.23.

With `O=C(O)c1cccc(-c2coc(-c3nc(C4CCCCC4)[nH]c3COC34CC5CC(CC(C5)C3)C4)n2)c1` [Example 1, 3-{2-[5-(Adamantan-1-yloxymethyl)-2-cyclohexyl-1H-imidazol-4-yl}-oxazol-4-yl}-benzoic acid], on gastrin (CCK2) receptors, the Kb is 7.94 nM. For the same compound, the Ki on CCK1 receptors is 741 nM. The matching figures for `Cc1ccccc1-c1nc(-c2nc(-c3cccc(C(=O)O)c3)co2)c(CCC23CC4CC(CC(C4)C2)C3)[nH]1` [Example 2, 3-{2-[5-(2-Adamantan-1-yl-ethyl)-2-o-tolyl-1H-imidazol-4-yl]oxazol-4-yl}-benzoic acid]: 18.2 nM and 1170 nM.

As to `O=C(O)c1cccc(-c2noc(-c3nc(C4CCCCC4)[nH]c3CCC34CC5CC(CC(C5)C3)C4)n2)c1` [Example 4, 3-{2-[5-(2-Adamantan-1-yl-ethyl)-2-cyclohexyl-1H-imidazol-4-yl]-[1,2,4]oxadiazol-3-3-yl}-benzoic acid], the Kb at gastrin (CCK2) receptors was 6.92 nM. At CCK1 receptors, the Ki is 339 nM.

Turning to `O=C(O)c1cccc(-c2csc(-c3nc(C4CCCCC4)[nH]c3COC34CC5CC(CC(C5)C3)C4)n2)c1` [Example 6, 3-{2-[5-(Adamantan-1-yloxymethyl)-2-cyclohexyl-1H-imidazol-4-yl]-thiazol-4-yl}-benzoic acid], at gastrin (CCK2) receptors, the Kb was 2.69 nM. The Ki at CCK1 receptors is 1150 nM.

Consider `O=C(O)c1cccc(-c2c[nH]c(-c3nc(C4CCCCC4)[nH]c3COC34CC5CC(CC(C5)C3)C4)n2)c1` [Example 7, 3-[5′-(Adamantan-1-yloxymethyl)-2′cyclohexyl-1H,1H′-[2,4′]biimidazolyl-4-yl]-benzoic acid], for which the Kb on gastrin (CCK2) receptors is 97.7 nM. Besides, the Ki on CCK1 receptors was 269 nM. As for `O=C(O)c1cccc(-c2nnc(-c3nc(C4CCCCC4)[nH]c3COC34CC5CC(CC(C5)C3)C4)s2)c1` [Example 8, 3-{5-[5-(Adamantan-1-yloxymethyl)-2-cyclohexyl-1H-imidazol-4-yl]-[1,3,4]thiadiazol-2-yl}-benzoic acid], the Kb on gastrin (CCK2) receptors was 3.72 nM. Also, at CCK1 receptors, the Ki is 135 nM. The matching figures for `O=C(O)c1cccc(-c2nnc(-c3nc(C4CCCCC4)[nH]c3COC34CC5CC(CC(C5)C3)C4)o2)c1` [Example 9, 3-{5-[5-(Adamantan-1-yloxymethyl)-2-cyclohexyl-1H-imidazol-4-yl]-[1,3,4]oxadiazol-2-yl}-benzoic acid]: 2.45 nM and 550 nM. As to `O=C(O)c1cccc(C2CN=C(c3nc(C4CCCCC4)[nH]c3COC34CC5CC(CC(C5)C3)C4)O2)c1` (centres unmarked) [Example 11, 3-{2-[5-(Adamantan-1-yloxymethyl)-2-cyclohexyl-1H-imidazol-4-yl]-4,5-dihydro-oxazol-5-yl}-benzoic acid], the Kb at gastrin (CCK2) receptors is 191 nM. Consider `O=C(O)c1cccc(-c2nnc(-c3nc(C4CCCCC4)[nH]c3COC34CC5CC(CC(C5)C3)C4)o2)n1` [Example 12, 6-{5-[5-(Adamantan-1-yloxymethyl)-2-cyclohexyl-1H-imidazol-4-yl]-[1,3,4]oxadiazol-2-yl}-pyridine-2-carboxylic acid], for which, on CCK1 receptors, the Ki was 2140 nM. Turning to `O=C(O)c1cncc(-c2nnc(-c3nc(C4CCCCC4)[nH]c3COC34CC5CC(CC(C5)C3)C4)o2)c1` [Example 13, 5-{5-[5-(Adamantan-1-yloxymethyl)-2-cyclohexyl-1H-imidazol-4-yl]-[1,3,4]oxadiazo-2-yl}-nicotinic acid], the Kb on gastrin (CCK2) receptors is 22.9 nM. In addition, the Ki at CCK1 receptors is 3240 nM. On to `O=C(O)c1cccc(-c2nnc(-c3nc(C45CCC(CC4)CC5)[nH]c3COC34CC5CC(CC(C5)C3)C4)o2)c1` [Example 16, 3-{5-[5-(Adamantan-1-yloxymethyl)-2-bicyclo[2.2.2]oct-1-yl-1H-imidazol-4-yl]-[1,3,4]oxadiazol-2-yl}-benzoic acid], for which the Kb at gastrin (CCK2) receptors was 1.91 nM. At CCK1 receptors, the Ki was 468 nM. The matching figures for `O=C(O)c1cccc(-c2nc(-c3nc(C4CCCCC4)[nH]c3COC34CC5CC(CC(C5)C3)C4)no2)c1` [Example 18, 3-{3-[5-(Adamantan-1-yloxymethyl)-2-cyclohexyl-1H-imidazol-4-yl]-[1,2,4]oxadiazol-5-yl}-benzoic acid]: 2.4 nM and 501 nM.

The values above are taken from US6878734B2, “Gastrin and cholecystokinin receptor ligands(II)” (James Black Foundation Limited, priority 2000, dated 2005).
